In patent publication EP3338775B1, “USE OF BUTYLIDENEPHTHALIDE” (Everfront Biotech Inc., priority 2015, dated 2017):
“And” between values parts separate entries of the source, which are not always exact repeats. Equal values may be shown once.

Experiments:
Assay type in all cases: cell-based
[1] = system: malignant glioma DBTRG cells; experiment: MTT cell viability assay on malignant glioma DBTRG cells; details: 24-hour group
Protocol: Thereafter, a cell viability assay, MTT assay, was utilized to analyze the viabilities of brain CSCs ^CD133+ and malignant glioma DBTRG cells. […] The results are shown in Figure 1A and Figure 1B for 24-hour group and 48-hour group (i.e., the treatment for 24 hours and 48 hours) and in Table 1 for 24-hour group.

brain CSCs ^CD133+ = experiment: MTT cell viability assay on brain CSCs CD133+; details: 24-hour group, MTT assay; read-out: IC50 to brain CSCs ^CD133+
Description: Thereafter, a cell viability assay, MTT assay, was utilized to analyze the viabilities of brain CSCs ^CD133+ and malignant glioma DBTRG cells. […]

ALDH = experiment: ALDEFLUOR flow cytometry analysis of ALDH activity in HNC-TIC-like oral stem cells; details: DEAB-added group (150 µM DEAB), with or without BP treatment; Figure 8
Protocol: ALDH protein is also an important stemness-maintenance marker of cancer stem cells and participates in the regulation of the self-renewal and differentiation of cancer stem cells. HNC-TIC-like oral stem cells (i.e., ALDH1^+CD44^+-1 cell line or ALDH1^+CD44^+-2 cell line) were treated with different concentrations (0, 25 and 50 µg/ml) of BP for 24 hours, and then, 1 ×10^5 cells obtained from each group were separately suspended in 50 µl of a stem cell detection kit (i.e., ALDEFLUOR array kit, purchased from […] Technologies Inc., Vancouver, Canada) buffer and the cell suspension of each group was separately added with ALDEFLUOR to a final concentration of 1 µM. Thereafter, a sample of each group was stained by […] and then analyzed by flow cytometry analysis to determine the ALDH activity of HNC-TIC-like oral stem cells (i.e., ALDH1^+CD44^+-1 cell line and ALDH1^+CD44^+-2 cell line).
The above experimental procedure was repeated, but the cell suspension of each group was further added with N,N-diethylaminobenzaldehyde (DEAB, i.e., an inhibitor of ALDH) to a final concentration of 150 µM of DEAB separately.

SMILES | IC50 [1] | IC50 (brain CSCs ^CD133+) | live cells with ALDH activity, of total live cells (ALDH)
Cn1nnc2c(C(N)=O)ncn2c1=O [TMZ, temozolomide, reference compound] | 1.66 mM and 322 µg/mL | > 1.6 mM and > 311 µg/mL | 
CCN(CC)c1ccc(C=O)cc1 [DEAB, N,N-diethylaminobenzaldehyde, reference compound] |  |  | 0.1%
O=NN(CCCl)C(=O)NCCCl [BCNU, bis-chloroethylnitrosourea] | 352 µM and 75.4 µg/mL |  | 
